# Test results reported in PMC7871173 (Journal of medicinal chemistry, 2019).
# Entries after “also recorded” stand apart in the source; their conditions may differ.
# What was measured:
# CB1 receptor [1] = biological target: T1, CB1 receptor (Mus musculus, UniProt P47746); conditions: for activity in the tetrad or psychoactive effects: see Supporting Information
# CB1 receptor [2] = biological target: T1, CB1 receptor; assay: Augmentation of CP 55,940 antinociception in the tail withdrawal test; assay type: in vivo; conditions: 40 mg/kg
# CB1 receptor [3] = biological target: T2, CB1 receptor (Homo sapiens, UniProt P21554); assay: cell-based; conditions: read-out: Emax PAM, maximum EC20 CP 55,940-induced β-arrestin recruitment relative to maximum achievable with CP 55,940
# T2 sequence (P21554 whole entry): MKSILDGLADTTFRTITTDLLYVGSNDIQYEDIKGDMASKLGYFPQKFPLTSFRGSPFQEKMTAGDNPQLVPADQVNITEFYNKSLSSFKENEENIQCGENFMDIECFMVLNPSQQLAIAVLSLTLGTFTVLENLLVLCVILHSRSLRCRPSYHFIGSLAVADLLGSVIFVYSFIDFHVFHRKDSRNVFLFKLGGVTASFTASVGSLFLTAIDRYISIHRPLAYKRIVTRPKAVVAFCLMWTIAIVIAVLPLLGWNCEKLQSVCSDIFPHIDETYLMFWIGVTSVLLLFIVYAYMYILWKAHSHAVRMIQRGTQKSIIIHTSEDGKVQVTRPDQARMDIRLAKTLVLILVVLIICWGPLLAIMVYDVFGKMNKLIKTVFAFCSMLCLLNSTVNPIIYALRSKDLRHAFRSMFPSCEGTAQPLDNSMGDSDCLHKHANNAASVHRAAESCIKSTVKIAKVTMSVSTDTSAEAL
# CB1 receptor [4] = biological target: T2, CB1 receptor; assay type: cell-based; conditions: for CB1 PAM activity (in words): enhancement of CP 55,940-induced β-arrestin recruitment; for enhancement of CP 55,940-induced β-arrestin recruitment: at 300 nM
# CB1 receptor [5] = biological target: T2, CB1 receptor; assay type: cell-based; conditions: compound alone; relative to maximum achievable with CP 55,940
# CB1 receptor [6] = biological target: T2, CB1 receptor; assay type: binding; conditions: 1 μM compound; for % enhancement of [3H]CP 55,940 binding: three independent experiments
# [7] = Mouse liver microsomal stability; assay type: in vitro ADME; conditions: mouse liver microsomes
# [8] = tested on: mouse chronic constrictive injury of the sciatic nerve (CCI) model of neuropathic pain; conditions: 40 mg/kg; cited from earlier work
# in vitro = conditions: rat, rat liver microsomes
# [9] = compared to nearest nitro analogue
# T1 sequence (P47746 whole entry): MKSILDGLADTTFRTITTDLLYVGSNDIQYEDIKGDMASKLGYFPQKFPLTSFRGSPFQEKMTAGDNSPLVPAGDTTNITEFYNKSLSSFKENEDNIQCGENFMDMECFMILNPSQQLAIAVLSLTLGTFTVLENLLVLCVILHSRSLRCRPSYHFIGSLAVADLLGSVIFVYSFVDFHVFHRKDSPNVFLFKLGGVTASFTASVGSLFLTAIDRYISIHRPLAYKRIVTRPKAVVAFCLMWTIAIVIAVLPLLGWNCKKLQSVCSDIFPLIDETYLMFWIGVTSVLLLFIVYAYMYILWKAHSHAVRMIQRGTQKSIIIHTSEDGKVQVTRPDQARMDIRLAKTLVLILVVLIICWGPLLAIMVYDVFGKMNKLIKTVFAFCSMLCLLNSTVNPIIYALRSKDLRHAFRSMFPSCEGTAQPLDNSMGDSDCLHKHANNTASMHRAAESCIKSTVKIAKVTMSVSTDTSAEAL
compound,measurement,setting,value
"N#Cc1ccc2c(C(CC(F)(F)F)c3cccs3)c(-c3ccccc3)[nH]c2c1 (racemic) [(±)-1, 2-Phenyl-3-(3,3,3-trifluoro-1-(thiophen-2-yl)propyl)-1H-indole-6-carbonitrile]",antinociception in the tail withdrawal test,"CB1 receptor [1]; 40 mg/kg, administered alone",did not produce antinociception
same,hypothermia,"CB1 receptor [1]; 40 mg/kg, administered alone",did not produce hypothermia
same,immobility in the catalepsy bar test,"CB1 receptor [1]; 40 mg/kg, administered alone",did not produce hypothermia or cause immobility in the catalepsy bar test
same,"locomotor behavior (distance traveled, immobility time)","CB1 receptor [1]; 40 mg/kg, administered alone",did not affect either the distance traveled or immobility time
same,pharmacological effects in the tetrad assay,"CB1 receptor [1]; 40 mg/kg, administered alone",did not elicit pharmacological effects
same,activity in the tetrad or psychoactive effects,CB1 receptor [1],neither ZCZ011 or (±)-1 showed any activity in the tetrad or psychoactive effects
same,"shift of dose–response relationship of CP 55,940 in producing antinociception",CB1 receptor [2],significant leftward shifts
same,Emax,CB1 receptor [3],100 ± 25%
N#Cc1ccc2c(C(C[N+](=O)[O-])c3cccs3)c(-c3ccccc3)[nH]c2c1 (racemic) [(±)-8],CB1 PAM activity (in words),CB1 receptor [4],moderately potent and efficacious CB1 PAMs
"N#Cc1ccc2c(C(C[N+](=O)[O-])c3cccs3)c(-c3ccccc3)[nH]c2c1 (single isomer, unassigned; (+)) [(+)-8]",Emax Ago,CB1 receptor [5],6%
same,"enhancement in binding of [3H]CP 55,940 (in words)",CB1 receptor [6],no enhancement
same,CB1 PAM activity (in words),CB1 receptor [4],effectively pure PAMs
"N#Cc1ccc2c(C(C[N+](=O)[O-])c3cccs3)c(-c3ccccc3)[nH]c2c1 (single isomer, unassigned; (-)) [(−)-8]","enhancement in binding of [3H]CP 55,940 (in words)",CB1 receptor [6],no enhancement
same,CB1 PAM activity (in words),CB1 receptor [4],effectively pure PAMs
N#Cc1ccc2c([C@@H](CC(F)(F)F)c3cccs3)c(-c3ccccc3)[nH]c2c1 [(R)-(−)-1],"enhancement in binding of [3H]CP 55,940 (in words)",CB1 receptor [6],significant enhancement
same,"% enhancement of [3H]CP 55,940 binding",CB1 receptor [6],131.4 ± 4.3%
same,Emax,CB1 receptor [3],125 ± 29%
N#Cc1ccc2c([C@H](CC(F)(F)F)c3cccs3)c(-c3ccccc3)[nH]c2c1 [(S)-(+)-1],"enhancement in binding of [3H]CP 55,940 (in words)",CB1 receptor [6],significant enhancement
same,"% enhancement of [3H]CP 55,940 binding",CB1 receptor [6],144.4 ± 3.5%
same,Emax,CB1 receptor [3],79 ± 32%
Cc1ccc2[nH]c(-c3ccccc3)c(C(C[N+](=O)[O-])c3cccs3)c2c1 (stereo not shown) [Compound 2],CB1 PAM activity (in words),CB1 receptor [4],poor potency
N#Cc1ccc2[nH]c(-c3ccccc3)c(C(C[N+](=O)[O-])c3cccs3)c2c1 (stereo not shown) [Compound 3],CB1 PAM activity (in words),CB1 receptor [4],poor potency
O=[N+]([O-])CC(c1cccs1)c1c(-c2ccccc2)[nH]c2ccc([N+](=O)[O-])cc12 (stereo not shown) [Compound 4],CB1 PAM activity (in words),CB1 receptor [4],poor potency
"Cc1ccc2c(C(C[N+](=O)[O-])c3cccs3)c(-c3ccccc3)[nH]c2c1 (stereo not shown) [Compound 5, reference compound]",activity in the tetrad or psychoactive effects,CB1 receptor [1],neither ZCZ011 or (±)-1 showed any activity in the tetrad or psychoactive effects
same,half-life,[7],≤ 10 min
same,anti-allodynic effects,[8],produces anti-allodynic effects
same,half-life,in vitro,≤ 10 min
same,"enhancement in binding of [3H]CP 55,940 (in words)",CB1 receptor [6],significant enhancement
same,CB1 PAM activity (in words),CB1 receptor [4],moderately potent and efficacious CB1 PAMs
O=[N+]([O-])CC(c1cccs1)c1c(-c2ccccc2)[nH]c2cc(Cl)ccc12 (stereo not shown) [Compound 6],CB1 PAM activity (in words),CB1 receptor [4],moderately potent and efficacious CB1 PAMs
O=[N+]([O-])CC(c1cccs1)c1c(-c2ccccc2)[nH]c2cc(C(F)(F)F)ccc12 (stereo not shown) [Compound 7],CB1 PAM activity (in words),CB1 receptor [4],moderately potent and efficacious CB1 PAMs
Cc1ccc2c(C(CC#N)c3ccccc3)c(-c3ccccc3)[nH]c2c1 (stereo not shown) [Compound 30],CB1 PAM activity (in words),CB1 receptor [4],modest
N#CCC(c1ccccc1)c1c(-c2ccccc2)[nH]c2cc(Cl)ccc12 (stereo not shown) [Compound 31],metabolic stability in rat liver microsomes (in words),[9],similarly poor metabolic stability
same,CB1 PAM activity (in words),CB1 receptor [4],somewhat reduced potency and efficacy
Cc1ccc2c(C(c3ccccc3)C(C#N)C#N)c(-c3ccccc3)[nH]c2c1 (stereo not shown) [Compound 32],CB1 PAM activity (in words),CB1 receptor [4],modest
Cc1ccc2c(C(C(=O)C(F)(F)F)c3ccccc3)c(-c3ccccc3)[nH]c2c1 (stereo not shown) [Compound 38],"enhancement of CP 55,940-induced β-arrestin recruitment",CB1 receptor [4],50–100%
Cc1ccc2c(C(CC(F)(F)F)c3ccccc3)c(-c3ccccc3)[nH]c2c1 (stereo not shown) [Compound 39],"enhancement of CP 55,940-induced β-arrestin recruitment",CB1 receptor [4],50–100%
O=C(O)c1ccc2c(C(CC(F)(F)F)c3cccs3)c(-c3ccccc3)[nH]c2c1 (stereo not shown) [Compound 51],CB1 PAM activity (in words),CB1 receptor [4],"none of 6-CO2H (51), 6-CH2OH (52), 6-NHAc (53), 6-NH2 (55), or 6-NHSO2Me (56) gave active compounds; also recorded: inactive"
"OCc1ccc2c(C(CC(F)(F)F)c3cccs3)c(-c3ccccc3)[nH]c2c1 (stereo not shown) [Compound 52, (2-Phenyl-3-(3,3,3-trifluoro-1-(thiophen-2-yl)propyl)-1H-indol-6-yl)methanol]",CB1 PAM activity (in words),CB1 receptor [4],"none of 6-CO2H (51), 6-CH2OH (52), 6-NHAc (53), 6-NH2 (55), or 6-NHSO2Me (56) gave active compounds"
"CC(=O)Nc1ccc2c(C(CC(F)(F)F)c3cccs3)c(-c3ccccc3)[nH]c2c1 (stereo not shown) [Compound 53, N-(2-Phenyl-3-(3,3,3-trifluoro-1-(thiophen-2-yl)propyl)-1H-indol-6-yl)acetamide]",CB1 PAM activity (in words),CB1 receptor [4],"none of 6-CO2H (51), 6-CH2OH (52), 6-NHAc (53), 6-NH2 (55), or 6-NHSO2Me (56) gave active compounds"
"CC(=O)c1ccc2c(C(CC(F)(F)F)c3cccs3)c(-c3ccccc3)[nH]c2c1 (stereo not shown) [Compound 54, 1-(2-Phenyl-3-(3,3,3-trifluoro-1-(thiophen-2-yl)propyl)-1H-indol-6-yl)ethan-1-one]",CB1 PAM activity (in words),CB1 receptor [4],potent and efficacious
"Nc1ccc2c(C(CC(F)(F)F)c3cccs3)c(-c3ccccc3)[nH]c2c1 (stereo not shown) [Compound 55, 2-Phenyl-3-(3,3,3-trifluoro-1-(thiophen-2-yl)propyl)-1H-indol-6-amine]",CB1 PAM activity (in words),CB1 receptor [4],"none of 6-CO2H (51), 6-CH2OH (52), 6-NHAc (53), 6-NH2 (55), or 6-NHSO2Me (56) gave active compounds"
"CS(=O)(=O)Nc1ccc2c(C(CC(F)(F)F)c3cccs3)c(-c3ccccc3)[nH]c2c1 (stereo not shown) [Compound 56, N-(2-Phenyl-3-(3,3,3-trifluoro-1-(thiophen-2-yl)propyl)-1H-indol-6-yl)methanesulfonamide]",CB1 PAM activity (in words),CB1 receptor [4],"none of 6-CO2H (51), 6-CH2OH (52), 6-NHAc (53), 6-NH2 (55), or 6-NHSO2Me (56) gave active compounds"
